What was measured:
[1] = test system: human subject 1-derived induced fibroblasts; format: cell-based
[2] = test system: human subject 2-derived induced fibroblasts; experiment: collagen production by induced fibroblasts after adding substance (subject 2); format: cell-based; conditions: compared with the control in which the addition was not carried out, FIG. 14B
Source text: (§1) Skin cells were collected from a human subject 1 and a human subject 2, and iPS cells were induced from the skin cells from the respective subjects. Further, in the same manner as in Example 2, fibroblasts were induced from the human subject 1-derived iPS cells, and fibroblasts were induced from the human subject 2-derived iPS cells.

[3] = test system: human subject 1-derived induced fibroblasts; experiment: collagen production by induced fibroblasts after adding substance (subject 1); format: cell-based; conditions: FIG. 14A; for amount of the collagen produced: human subject 1-derived induced fibroblasts, compared with the control in which the addition was not carried out
Source text: as §1

[4] = test system: human subject 2-derived induced fibroblasts; conditions: among phenoxyethanol, paraben, benzalkonium chloride, sodium salicylate, FIG. 15B
Protocol: In addition, phenoxyethanol, paraben, benzalkonium chloride, and sodium salicylate, which are respectively antiseptic agents, were prepared.

With OCCOc1ccccc1 [phenoxyethanol] the “survival rate of cells” value [1] was “highest”.

For CC1=C(/C=C/C(C)=C/C=C/C(C)=C/CO)C(C)(C)CCC1 [retinol], the “amount of the collagen produced” value [2] was “increased” and the “amount of the collagen produced” value [3] was “increased”.

For O=C([O-])c1ccccc1O.[Na+] [sodium salicylate], the “survival rate of cells” value [4] was “highest”.

In the case of O=C1O[C@H]([C@@H](O)CO)C(O)=C1O [vitamin C], the “amount of the collagen produced” value [2] is reported as “increased”, the “amount of the collagen produced” value [3] is reported as “increased” and the “effectiveness in increasing the production amount of collagen, compared among added substances” value ([3]; induced fibroblasts derived from human subject 1, among vitamin C, retinol, iPS cell culture medium supernatant) is reported as “most effective”.

Reference: US20240319171A1, “METHOD FOR SCREENING SUBSTANCE, SYSTEM FOR SCREENING SUBSTANCE, METHOD FOR PRODUCING A CLUMP FROM STEM CELLS, AND METHOD FOR PRODUCING DIFFERENTIATED CELLS” (priority 2023, published 2024)
